Experimental data taken from the NIST ThermoML archive (doi:10.1021/je900278v).
± gives the expanded uncertainty stated by the source.

Tests used:
[1] = 101 kPa, Liquid; for viscosity: 293.15 K, Capillary tube (Ostwald / Ubbelohde) method; for mass density: 298.15 K
[2] = xn = mol fraction of the nth substance listed; settings: 101 kPa, Liquid; for viscosity: 293.15 K, Capillary tube (Ostwald / Ubbelohde) method; for mass density: 298.15 K

BrCCBr [1,2-dibromoethane]
viscosity [1]: 1.733 ± 0.011 mPa·s | mass density [1]: 2179.59 ± 2.2 kg/m3

BrCCBr [1,2-dibromoethane] + CCCCCCO
viscosity ([2]; x1 = 0.0402): 4.925 ± 0.033 mPa·s | viscosity ([2]; x1 = 0.0682): 4.703 ± 0.031 mPa·s | viscosity ([2]; x1 = 0.1276): 4.275 ± 0.028 mPa·s | viscosity ([2]; x1 = 0.2056): 3.781 ± 0.025 mPa·s | viscosity ([2]; x1 = 0.2686): 3.412 ± 0.022 mPa·s | viscosity ([2]; x1 = 0.3892): 2.862 ± 0.019 mPa·s | viscosity ([2]; x1 = 0.4277): 2.711 ± 0.018 mPa·s | viscosity ([2]; x1 = 0.5444): 2.325 ± 0.015 mPa·s | viscosity ([2]; x1 = 0.6405): 2.07 ± 0.014 mPa·s | viscosity ([2]; x1 = 0.7326): 1.877 ± 0.012 mPa·s | viscosity ([2]; x1 = 0.8519): 1.726 ± 0.011 mPa·s | viscosity ([2]; x1 = 0.9273): 1.69 ± 0.011 mPa·s | viscosity ([2]; x1 = 0.9587): 1.692 ± 0.011 mPa·s | viscosity ([2]; x1 = 0.9782): 1.71 ± 0.011 mPa·s | viscosity ([2]; x1 = 1): 1.733 ± 0.011 mPa·s | mass density ([2]; x1 = 0.0402): 856.608 ± 0.41 kg/m3 | mass density ([2]; x1 = 0.0682): 883.413 ± 0.38 kg/m3 | mass density ([2]; x1 = 0.1276): 941.916 ± 0.31 kg/m3 | mass density ([2]; x1 = 0.2056): 1022.36 ± 0.28 kg/m3 | mass density ([2]; x1 = 0.2686): 1090.47 ± 0.37 kg/m3 | mass density ([2]; x1 = 0.3892): 1228.97 ± 0.57 kg/m3 | mass density ([2]; x1 = 0.4277): 1276.43 ± 0.66 kg/m3 | mass density ([2]; x1 = 0.5444): 1427.13 ± 0.9 kg/m3 | mass density ([2]; x1 = 0.6405): 1562 ± 1.1 kg/m3 | mass density ([2]; x1 = 0.7326): 1701.64 ± 1.4 kg/m3 | mass density ([2]; x1 = 0.8519): 1899.69 ± 1.7 kg/m3 | mass density ([2]; x1 = 0.9273): 2036.52 ± 2 kg/m3 | mass density ([2]; x1 = 0.9587): 2096.51 ± 2.1 kg/m3 | mass density ([2]; x1 = 0.9782): 2135.29 ± 2.2 kg/m3 | mass density ([2]; x1 = 1): 2179.59 ± 2.2 kg/m3

ClCCCl [1,2-dichloroethane]
viscosity [1]: 0.827 ± 0.007 mPa·s | mass density [1]: 1252.77 ± 0.6 kg/m3

ClCCCl [1,2-dichloroethane] + CCCCCCO
viscosity ([2]; x1 = 0.037): 5.008 ± 0.032 mPa·s | viscosity ([2]; x1 = 0.0769): 4.696 ± 0.03 mPa·s | viscosity ([2]; x1 = 0.1499): 4.191 ± 0.027 mPa·s | viscosity ([2]; x1 = 0.2147): 3.787 ± 0.025 mPa·s | viscosity ([2]; x1 = 0.2935): 3.292 ± 0.023 mPa·s | viscosity ([2]; x1 = 0.3952): 2.726 ± 0.02 mPa·s | viscosity ([2]; x1 = 0.4532): 2.405 ± 0.018 mPa·s | viscosity ([2]; x1 = 0.5596): 1.894 ± 0.015 mPa·s | viscosity ([2]; x1 = 0.6113): 1.677 ± 0.013 mPa·s | viscosity ([2]; x1 = 0.6971): 1.372 ± 0.011 mPa·s | viscosity ([2]; x1 = 0.7791): 1.137 ± 0.009 mPa·s | viscosity ([2]; x1 = 0.8563): 0.977 ± 0.008 mPa·s | viscosity ([2]; x1 = 0.9335): 0.873 ± 0.007 mPa·s | viscosity ([2]; x1 = 0.979): 0.833 ± 0.007 mPa·s | viscosity ([2]; x1 = 1): 0.827 ± 0.007 mPa·s | mass density ([2]; x1 = 0.037): 828.769 ± 0.68 kg/m3 | mass density ([2]; x1 = 0.0769): 839.847 ± 0.69 kg/m3 | mass density ([2]; x1 = 0.1499): 860.583 ± 0.68 kg/m3 | mass density ([2]; x1 = 0.2147): 879.725 ± 0.7 kg/m3 | mass density ([2]; x1 = 0.2935): 904.954 ± 0.73 kg/m3 | mass density ([2]; x1 = 0.3952): 940.475 ± 0.75 kg/m3 | mass density ([2]; x1 = 0.4532): 962.107 ± 0.82 kg/m3 | mass density ([2]; x1 = 0.5596): 1005.05 ± 0.84 kg/m3 | mass density ([2]; x1 = 0.6113): 1027.55 ± 0.94 kg/m3 | mass density ([2]; x1 = 0.6971): 1067.98 ± 1 kg/m3 | mass density ([2]; x1 = 0.7791): 1111.06 ± 1.1 kg/m3 | mass density ([2]; x1 = 0.8563): 1155.16 ± 1.3 kg/m3 | mass density ([2]; x1 = 0.9335): 1205.43 ± 1.4 kg/m3 | mass density ([2]; x1 = 0.979): 1236.99 ± 1.5 kg/m3 | mass density ([2]; x1 = 1): 1252.77 ± 0.6 kg/m3

CCCCCCO [hexan-1-ol]
viscosity [1]: 5.291 ± 0.03 mPa·s | mass density [1]: 818.856 ± 0.42 kg/m3

CCCCCCO [hexan-1-ol] + BrCCBr
viscosity ([2]; x2 = 0): 5.291 ± 0.03 mPa·s | mass density ([2]; x2 = 0): 818.856 ± 0.42 kg/m3

CCCCCCO [hexan-1-ol] + ClC(Cl)=C(Cl)Cl
viscosity ([2]; x2 = 0): 5.291 ± 0.03 mPa·s | mass density ([2]; x2 = 0): 818.856 ± 0.42 kg/m3

CCCCCCO [hexan-1-ol] + ClCCCl
viscosity ([2]; x2 = 0): 5.291 ± 0.03 mPa·s | mass density ([2]; x2 = 0): 818.856 ± 0.42 kg/m3

ClC(Cl)=C(Cl)Cl [tetrachloroethene]
viscosity [1]: 0.89 ± 0.007 mPa·s | mass density [1]: 1622.74 ± 1.2 kg/m3

ClC(Cl)=C(Cl)Cl [tetrachloroethene] + CCCCCCO
viscosity ([2]; x1 = 0.0688): 4.756 ± 0.031 mPa·s | viscosity ([2]; x1 = 0.123): 4.351 ± 0.029 mPa·s | viscosity ([2]; x1 = 0.2457): 3.493 ± 0.024 mPa·s | viscosity ([2]; x1 = 0.3618): 2.772 ± 0.02 mPa·s | viscosity ([2]; x1 = 0.4502): 2.308 ± 0.017 mPa·s | viscosity ([2]; x1 = 0.5583): 1.853 ± 0.014 mPa·s | viscosity ([2]; x1 = 0.6518): 1.534 ± 0.012 mPa·s | viscosity ([2]; x1 = 0.7068): 1.382 ± 0.01 mPa·s | viscosity ([2]; x1 = 0.7419): 1.297 ± 0.01 mPa·s | viscosity ([2]; x1 = 0.7797): 1.213 ± 0.009 mPa·s | viscosity ([2]; x1 = 0.8315): 1.116 ± 0.009 mPa·s | viscosity ([2]; x1 = 0.8718): 1.051 ± 0.008 mPa·s | viscosity ([2]; x1 = 0.9179): 0.982 ± 0.008 mPa·s | viscosity ([2]; x1 = 0.9504): 0.942 ± 0.007 mPa·s | viscosity ([2]; x1 = 1): 0.89 ± 0.007 mPa·s | mass density ([2]; x1 = 0.0688): 864.637 ± 0.38 kg/m3 | mass density ([2]; x1 = 0.123): 901.521 ± 0.33 kg/m3 | mass density ([2]; x1 = 0.2457): 987.759 ± 0.22 kg/m3 | mass density ([2]; x1 = 0.3618): 1072.99 ± 0.31 kg/m3 | mass density ([2]; x1 = 0.4502): 1140.46 ± 0.41 kg/m3 | mass density ([2]; x1 = 0.5583): 1226.3 ± 0.55 kg/m3 | mass density ([2]; x1 = 0.6518): 1303.62 ± 0.68 kg/m3 | mass density ([2]; x1 = 0.7068): 1350.53 ± 0.76 kg/m3 | mass density ([2]; x1 = 0.7419): 1381.18 ± 0.81 kg/m3 | mass density ([2]; x1 = 0.7797): 1414.65 ± 0.87 kg/m3 | mass density ([2]; x1 = 0.8315): 1461.44 ± 0.95 kg/m3 | mass density ([2]; x1 = 0.8718): 1498.8 ± 1 kg/m3 | mass density ([2]; x1 = 0.9179): 1542.25 ± 1.1 kg/m3 | mass density ([2]; x1 = 0.9504): 1573.61 ± 1.2 kg/m3 | mass density ([2]; x1 = 1): 1622.74 ± 1.2 kg/m3
